Data reported in patent US10717090B2, “Depression of copper and iron sulfides in molybdenite flotation circuits” (TESSENDERLO KERLEY, INC., priority 2014, dated 2020).

Tests used:
[1] = H2S evolution vs. pH in simulated flotation process (headspace analysis); assay type: physicochemical; conditions: pH adjusted to between 9 and 9.5, ambient temperature
Method: The H2S evolution due to the decomposition of depressant reagents during storage, handling and application presents the highest associated hazard with regards to health and safety (HSE). Testing of TKI's Alkaline Polysulfide products against the standard (NaHS reagent) was conducted in a simulated flotation process using lab apparatus to determine the amount of H2S evolved at various pH's. The tests were conducted using the following testing protocol; • All tests were ran at ambient temperatures using tap water. Add 500 ml of tap water to […] glass apparatus, check pH and temp, start and maintain stirring throughout test. • Add Ca(OH)2 to raise pH to approximately 10.5 • Add 5 mL of reagent. • Allow to stabilize for 2 min, with cracking of stopper to equilibrate at 1 min. • Check pH, temperature and H2S in VP using analyzer. • Add H2SO4 to decrease pH to ˜9. • Allow to stabilize for 2 min, with cracking of stopper to equilibrate at 1 min. • Check pH, temperature and H2S in VP using analyzer. • Repeat last three Steps for pH 9, 8 and 7 if applicable.
Note the H2S in the vapor phase above the polysulfide samples increased to 1500 ppm at pH near 8.2, while this 1500 ppm level was reached by NaHS samples at pH 9.1 to 9.3. […] This would translate into a less hazardous environment in applications where the process is run ran at lower pH's (˜9) utilizing for example CO2 as a flotation medium or modifying agent.
Values above 1500 ppm are lower limits, as the H2S meter maximum reading was 2000 PPM. […] Therefore, this invention may show significant health and safety benefits even at pH near 8.

mammals = conditions: cited from earlier work

S [NaHS, Sodium hydrosulfide, reference compound]
H2S in vapor phase [1]: 1500 ppm

Calcium Polysulfide [CaPS]
H2S in vapor phase [1]: remained low
LD50 (mammals): about 0.8 grams per kilogram of body weight

Potassium Polysulfide [KPS]
H2S in vapor phase [1]: presumably KPS remained low

Sodium Polysulfide [NaPS]
H2S in vapor phase [1]: remained low
